Patent publication US9682960B2 (priority 2013, dated 2017)
pIC50: −log10 of the molar value. Several values for one entry are separate records, joined by “and”; a condition that tells them apart may be missing. Equal entries are not always repeated.

What was measured:
Androgen Receptor = assay: Overall classification (antiandrogen / SARM) in the models studied
[1] = tested on: intact immature male rats; assay: Activity in intact immature male rats; type: in vivo, rat
Method: Immature male rats (Crl:CD(SD)Br) 22 to 24-day old weighting 60-80 g at start of treatment were obtained from Charles-River, Inc. (St-Constant, Quebec, Canada) and housed up to 5 per cage in plastic bins in a temperature (23±1° C.)- and light (12 h light/day, lights on at 7 h15)-controlled environment. The rats were fed rodent chow and tap water ad libitum. […] The day following their arrival, the designed animals were orchidectomized (CX) under Isoflurane anesthesia (Study Day 1) via the scrotal route and were then randomly assigned to groups of 3 to 5 animals. At the time of orchidectomy, one silastic implant of dihydrotestosterone (DHT; 1 cm length of pure DHT in silastic tubing having inner and outer diameter of 0.078 and 0.125 inches, respectively), was inserted subcutaneously in the dorsal area of animals assigned to the evaluation of antiandrogenic activity. In the case of intact animal experiments, the orchidectomy and the silastic implant installation are omitted.
Tested compounds were administered orally once daily for 7 days from Study Day 2 to Study Day 8 at doses generally ranging from 0.1 and 0.5 mg/animal. Compounds were either solubilized in dimethylsulfoxide (DMSO, 10% final concentration) and were administered as a solution/suspension in 0.9% NaCl-1% gelatin or were administered as suspensions in 0.4% aqueous methylcellulose. Animals of the control groups received the corresponding vehicle alone during the 7-day period. Some animals were treated with the antiandrogen Flutamide or Casodex as reference. The animals under isoflurane anesthesia were killed by cervical dislocation on day 9 of the study, approximately 24 h after the last dosing. The ventral prostate, seminal vesicles and bulbocavernosus muscles were rapidly dissected and weighed.
For calculations with intact animals, control DHT is replaced by control intact and the % stimulation is subtracted by 100%. W is the weight of the prostate, seminal vesicles or bulbocavernosus muscles. Discussion

[2] = tested on: castrated (CX) immature male rats; assay: Systemic androgenic (agonistic) activity in orchidectomized (CX) immature male rats; type: in vivo, rat; settings: for CX Agonistic activity % Stimulation Bulbo / CX Agonistic activity % Stimulation SV / CX Agonistic activity % Stimulation Prostate: 0.1 mg/rat/po, 7 days; for CX Agonistic activity % Stimulation Bulbo: bulbocavernosus muscles weight; for CX Agonistic activity % Stimulation SV: seminal vesicles weight; for CX Agonistic activity % Stimulation Prostate: ventral prostate weight
[3] = tested on: Shionogi mouse mammary carcinoma cells; assay: In vitro androgenic/antiandrogenic activity: proliferation of Shionogi cells with or without DHT; type: cell-based; settings: for pIC50: Mus musculus, read-out: Shionogi Antiandrogenic Activity IC50, DHT (0.3 nM)-stimulated cell number
Human Androgen Receptor = Human Androgen Receptor (Homo sapiens (Human), UniProt P10275); assay: Androgen receptor assay: [3H]R1881 displacement, cytosol of HEK-293 cells transfected with hAR (hydroxylapatite assay); type: binding; settings: for Human Androgen Receptor Binding RBA (%) R1881 = 100: relative binding affinity
[4] = Oral absorption, Experiment 1: plasma levels after single oral 20 mg EM-9150/kg in intact male rats (LC-MS/MS); type: in vivo, rat; settings: metabolite after oral EM-9150
Method: Intact 6 week-old male rats (Crl:CD(SD)) weighing 150-205 g were obtained from Charles-River Canada Inc. (St-Constant, Quebec, Canada) and housed up to 3 per cage in plastic bins in a temperature (19° C. to 25° C.)- and light (12 h light/day)-controlled environment. They were acclimatized to laboratory conditions for 2 weeks prior to the pharmacokinetic (PK) study. The rats were fed rodent chow (PMI Nutrition International Certified Rodent Chow No. 5CR4 (14% protein)) and tap water ad libitum. Animals were weighing 165-200 g at the time of dosing.
Blood samples (˜0.4 mL/timepoint/rat) were collected by jugular venipuncture at 0.5, 1, 2, 3.5, 7 and 24 h post-dosing from 3 animals/timepoint. Blood samples were put into tubes containing EDTA(K3) as anticoagulant and centrifuged at 4° C. for 10 min at 2700 rpm. The resulting plasma was separated and transferred to 2 polypropylene tubes, frozen immediately over dry ice and kept in a freezer set to maintain −80° C. until analysis.

[5] = tested on: castrated (CX) immature male rats; assay: Systemic androgenic (agonistic) activity in orchidectomized (CX) immature male rats; type: in vivo; settings: 0.1 mg/rat, s.c. (subcutaneous)
[6] = immature castrated rat, oral 7 days

Human Androgen Receptor, sequence (P10275 whole entry): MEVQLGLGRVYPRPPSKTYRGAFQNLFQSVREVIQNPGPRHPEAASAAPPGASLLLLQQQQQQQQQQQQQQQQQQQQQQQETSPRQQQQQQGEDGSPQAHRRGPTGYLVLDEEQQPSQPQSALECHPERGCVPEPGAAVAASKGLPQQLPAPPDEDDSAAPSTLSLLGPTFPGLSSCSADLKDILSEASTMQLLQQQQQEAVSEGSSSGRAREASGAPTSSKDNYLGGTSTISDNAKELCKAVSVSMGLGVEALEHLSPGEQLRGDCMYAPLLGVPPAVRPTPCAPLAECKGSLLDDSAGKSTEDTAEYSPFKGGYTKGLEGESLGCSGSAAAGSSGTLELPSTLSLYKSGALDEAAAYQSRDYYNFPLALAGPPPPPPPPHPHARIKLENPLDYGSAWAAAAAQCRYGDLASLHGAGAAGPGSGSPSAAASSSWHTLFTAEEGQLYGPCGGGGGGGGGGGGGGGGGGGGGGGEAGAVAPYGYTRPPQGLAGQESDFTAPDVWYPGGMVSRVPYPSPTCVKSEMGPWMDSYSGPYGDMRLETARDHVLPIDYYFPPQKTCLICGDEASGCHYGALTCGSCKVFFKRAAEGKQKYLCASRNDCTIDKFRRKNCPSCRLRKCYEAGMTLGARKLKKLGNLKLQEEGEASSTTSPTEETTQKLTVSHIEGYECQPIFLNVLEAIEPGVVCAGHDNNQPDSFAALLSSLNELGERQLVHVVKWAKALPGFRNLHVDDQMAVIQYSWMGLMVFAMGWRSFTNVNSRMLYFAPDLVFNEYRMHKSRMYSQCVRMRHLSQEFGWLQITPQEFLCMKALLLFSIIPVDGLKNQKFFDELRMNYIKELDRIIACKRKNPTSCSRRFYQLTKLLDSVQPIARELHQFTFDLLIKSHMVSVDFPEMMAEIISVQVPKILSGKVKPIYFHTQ

Compound | classification as antiandrogen or SARM (in words) (Androgen Receptor) | activity on the bulbocavernosus muscles (in words) ([1]; immature intact rat) | activity on the prostate and seminal vesicles (in words) ([1]; immature intact rat) | inhibition of intact rat prostate ([1]; intact immature rat, 7 days) | inhibition of intact rat seminal vesicles ([1]; intact immature rat, 7 days) | stimulation of the bulbocavernosus muscles in intact rat ([1]; intact immature rat, 7 days) | CX Agonistic activity % Stimulation Bulbo [2] | CX Agonistic activity % Stimulation SV [2] | CX Agonistic activity % Stimulation Prostate [2] | activity on the bulbocavernosus muscles (in words) [2, 6] | activity on the prostate and seminal vesicles (in words) [2, 6] | pIC50 [3] | % of stimulation at 10^−7M on basal Shionogi cells ([3]; basal (no DHT), 10^−7M) | Human Androgen Receptor Binding RBA (%) R1881 = 100 (Human Androgen Receptor) | times more potent than OH-flutamide on the human AR (RBA ratio) (Human Androgen Receptor; versus hydroxyflutamide) | share of the plasma exposure of EM-9150 [4] | CX Agonistic activity % Stimulation Bulbo [5] | CX Agonistic activity % Stimulation Prostate [5]
Cc1c(N2C(=O)N(CCCOc3ccc(-c4ccncc4)cc3Cl)C(C)(C)C2=O)ccc(C#N)c1Cl [EM-9251] | selective androgen receptor modulators | agonistic activity | antagonistic activity | 25±4% | 35±7% | 77±6% | 119±24% and 119 ± 24 (n = 2) % | 27 ± 1 (n = 2) % | 41 ± 2 (n = 2) % | agonistic activity | mixed agonistic-antagonistic activity | 7.17 | 38% | 253% | 1200 times | – | – | –
CC1(C)NC(=O)N(c2ccc(C#N)c(Cl)c2)C1=O [EM-9260] | antiandrogens | – | – | – | – | – | 4% | 2% | 0% | – | – | ~7.00 | – | ~0.1% | – | approximately 90% | – | –
Cc1c(N2C(=O)NC(C)(C)C2=O)ccc(C#N)c1Cl [EM-9289] | selective androgen receptor modulators | – | – | – | – | – | 138 ± 15 (n = 2) % | 38 ± 5 (n = 2) % | 50 ± 6 (n = 2) % | – | – | ~6.00 | – | 1.0% | – | – | – | –
C[C@]12CC[C@H]3[C@@H](CCC4=CC(=O)CC[C@@]43C)[C@@H]1CC[C@@H]2O [Testosterone] | – | – | – | – | – | – | – | – | – | – | – | – | – | – | – | – | 171% | 99%
